Earlier results, collected in patent publication US20090221688A1, “PHARMACEUTICAL COMPOSITIONS CONTAINING DOCETAXEL AND A DEGRADATION INHIBITOR AND A PROCESS FOR OBTAINING THE SAME” (Quiral Quimica DO Brasil S.A., priority 2006, published 2009).

Target: T1, recombinant human cytochrome P450 1B1 (hCYP1B1) (Homo sapiens, UniProt Q16678)
T1 sequence (Q16678 1-543): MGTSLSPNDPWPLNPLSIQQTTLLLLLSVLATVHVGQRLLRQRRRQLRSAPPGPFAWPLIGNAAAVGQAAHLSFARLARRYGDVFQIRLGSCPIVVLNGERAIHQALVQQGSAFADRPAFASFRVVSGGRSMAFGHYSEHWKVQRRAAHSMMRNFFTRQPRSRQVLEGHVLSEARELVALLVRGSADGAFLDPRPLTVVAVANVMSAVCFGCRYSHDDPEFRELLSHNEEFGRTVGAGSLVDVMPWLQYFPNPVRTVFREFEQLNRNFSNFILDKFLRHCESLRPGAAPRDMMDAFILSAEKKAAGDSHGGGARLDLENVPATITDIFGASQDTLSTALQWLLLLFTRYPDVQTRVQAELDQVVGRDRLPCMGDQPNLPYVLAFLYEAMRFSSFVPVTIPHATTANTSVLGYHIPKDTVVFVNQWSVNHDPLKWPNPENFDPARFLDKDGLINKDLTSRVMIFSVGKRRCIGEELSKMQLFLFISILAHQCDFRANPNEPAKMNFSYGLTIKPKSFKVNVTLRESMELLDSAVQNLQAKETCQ

Row | Structure (SMILES) | Increase of the activity of hCYP1B1 (concentration of 10 μM) | Metabolism by hCYP1B1 in vitro (EROD activity as a measure)
1 | CC(=O)O[C@@]12COC1C[C@@H](O)[C@@]1(C)C(=O)[C@H](O)C3=C(C)[C@@H](OC(=O)[C@H](O)[C@@H](NC(=O)OC(C)(C)C)c4ccccc4)C[C@@](O)([C@@H](OC(=O)c4ccccc4)[C@@H]12)C3(C)C (stereo partly drawn) [7-epi-docetaxel (II), 4-acetoxy-2-α-benzoyloxy-5β-20-epoxy-1,7-α-10-β-trihydroxy-9-oxo-tax-11-en-13α-il (2R,3S) 3-tert-butoxycarbonylamino-2-hydroxy-3-phenylpropionate ester] | more than 7 fold | 
2 | CC(=O)O[C@@]12COC1C[C@H](O)[C@@]1(C)C(=O)[C@H](O)C3=C(C)[C@@H](OC(=O)[C@H](O)[C@@H](NC(=O)OC(C)(C)C)c4ccccc4)C[C@@](O)([C@@H](OC(=O)c4ccccc4)[C@@H]12)C3(C)C (stereo partly drawn) [docetaxel, 4-acetoxy-2α-benzoyloxy-5β-20-epoxy-1,7-β-10-β-trihydroxy-9-oxo-tax-11-en-13α-il (2R,3S) 3-tert-butoxycarbonylamino-2-hydroxy-3-phenylpropionate ester] |  | not metabolized
